Values quoted from earlier work in publication PMC3828007 (CPT: Pharmacometrics & Systems Pharmacology, 2013).

Tests used:
NET (plasma DHPG) = details: read-out: in vivo EC50 for inhibitory effect on plasma DHPG

EC50 (NET (plasma DHPG)) [nM] | Structure (SMILES) | CYP inhibition liability (CYP)
– | COc1ccc(C(CN(C)C)C2(O)CCCCC2)cc1 (centres unmarked) [venlafaxine] | moderate
